# In PubChem BioAssay (NCI):
#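 GI50 = concentration required for 50% inhibition of growth. TGI denotes the concentration required for complete inhibition of growth.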
# Key:
# Test in all cases: NCI tumour cell line growth inhibition, 384-well format
# [1] = tested on: 786-0 renal
# [2] = tested on: A498 renal
# [3] = tested on: ACHN renal
# [4] = tested on: CAKI-1 renal
# [5] = tested on: CCRF-CEM leukemia
# [6] = tested on: DU-145 prostate
# [7] = tested on: EKVX NSCLC
# [8] = tested on: HCC-2998 colon
# [9] = tested on: HCT-116 colon
# [10] = tested on: HCT-15 colon
# [11] = tested on: HL-60(TB) leukemia
# [12] = tested on: HOP-62 NSCLC
# [13] = tested on: HOP-92 NSCLC
# [14] = tested on: HS 578T breast
# [15] = tested on: IGROV1 ovarian
# [16] = tested on: KM12 colon
# [17] = tested on: MALME-3M melanoma
# [18] = tested on: MCF7 breast
# [19] = tested on: MDA-MB-231 breast
# [20] = tested on: MDA-MB-435 melanoma
# [21] = tested on: MDA-MB-468 breast
# [22] = tested on: MOLT-4 leukemia
# [23] = tested on: NCI-H226 lung
# [24] = tested on: NCI-H23 lung
# [25] = tested on: NCI-H460 NSCLC
# [26] = tested on: NCI-H522 lung
# [27] = tested on: NCI/ADR-RES ovarian
# [28] = tested on: OVCAR-3 ovarian
# [29] = tested on: OVCAR-4 ovarian
# [30] = tested on: OVCAR-5 ovarian
# [31] = tested on: OVCAR-8 ovarian
# [32] = tested on: PC-3 prostate
# [33] = tested on: RXF 393 renal
# [34] = tested on: SF-268 CNS
# [35] = tested on: SF-539 CNS
# [36] = tested on: SK-MEL-5 melanoma
# [37] = tested on: SK-OV-3 ovarian
# [38] = tested on: SN12C renal
# [39] = tested on: SNB-19 CNS
# [40] = tested on: SNB-75 CNS
# [41] = tested on: SW-620 colon
# [42] = tested on: T-47D breast
# [43] = tested on: TK-10 renal
smiles,measurement,setting,value
CN1CCN(c2ccc(OC(F)(F)F)c(Nc3ncc4c(n3)-c3c(c(C(N)=O)nn3CCO)CC4)c2)CC1,GI50,[1],52.7 nM
same,TGI,[1],10.3 µM
same,GI50,[2],87.1 nM
same,TGI,[2],17.3 µM
same,GI50,[3],554 nM
same,TGI,[3],19.7 µM
same,GI50,[4],478 nM
same,TGI,[4],19.4 µM
same,GI50,[5],< 10 nM
same,TGI,[5],< 10 nM
same,GI50,[6],26.4 nM
same,TGI,[6],104 nM
same,GI50,[7],93.6 nM
same,TGI,[7],19.4 µM
same,GI50,[8],18.4 nM
same,TGI,[8],61.6 nM
same,GI50,[9],19.8 nM
same,TGI,[9],13 µM
same,GI50,[10],56.1 nM
same,TGI,[10],347 nM
same,GI50,[11],< 10 nM
same,TGI,[11],< 10 nM
same,GI50,[12],25.2 nM
same,TGI,[12],297 nM
same,GI50,[13],73.9 nM
same,TGI,[13],6.66 µM
same,GI50,[14],20.2 nM
same,TGI,[14],54.1 nM
same,GI50,[15],40.6 nM
same,TGI,[15],15.9 µM
same,GI50,[16],11.4 nM
same,TGI,[16],95.4 nM
same,GI50,[17],68.5 nM
same,TGI,[17],16.7 µM
same,GI50,[18],18.3 nM
same,TGI,[18],12.5 µM
same,GI50,[19],38.3 nM
same,TGI,[19],58.1 µM
same,GI50,[20],10.8 nM
same,TGI,[20],28.8 nM
same,GI50,[21],< 10 nM
same,TGI,[21],< 10 nM
same,GI50,[22],10 nM
same,TGI,[22],22.1 nM
same,GI50,[23],14.8 µM
same,TGI,[23],56.3 µM
same,GI50,[24],13.9 nM
same,TGI,[24],37.7 nM
same,GI50,[25],17.8 nM
same,TGI,[25],37.7 nM
same,GI50,[26],< 10 nM
same,TGI,[26],26.6 nM
same,GI50,[27],325 nM
same,TGI,[27],1330 nM
same,GI50,[28],< 10 nM
same,TGI,[28],37.2 nM
same,GI50,[29],6.1 µM
same,TGI,[29],27.1 µM
same,GI50,[30],30.8 nM
same,TGI,[30],> 100 µM
same,GI50,[31],18.3 nM
same,TGI,[31],37.6 nM
same,GI50,[32],43.8 nM
same,TGI,[32],35.2 µM
same,GI50,[33],15.1 nM
same,TGI,[33],43.9 nM
same,GI50,[34],< 10 nM
same,TGI,[34],12 nM
same,GI50,[35],30.8 nM
same,TGI,[35],263 nM
same,GI50,[36],11.5 nM
same,TGI,[36],121 nM
same,GI50,[37],37.6 nM
same,TGI,[37],> 100 µM
same,GI50,[38],546 nM
same,TGI,[38],15.1 µM
same,GI50,[39],39.2 nM
same,TGI,[39],> 100 µM
same,GI50,[40],64 nM
same,TGI,[40],4.69 µM
same,GI50,[41],13.6 nM
same,TGI,[41],145 nM
same,GI50,[42],184 nM
same,TGI,[42],8.33 µM
same,GI50,[43],17.3 µM
same,TGI,[43],> 100 µM
